# Experiments:
# Test in all cases: relative viability (nuclei count vs DMSO), 5 days (fraction); higher = more cells survive
# [1] = compound: CN1CCN(CC1)C2=CC(=C(C=C2)NC3=NC=C4C(=N3)N(C5=CC=CC=C5C(=O)N4C)C)OC [XMD8-85] + NC(=O)Nc1cc(-c2cccc(F)c2)sc1C(=O)N[C@H]1CCCNC1 [AZD7762] (partner 0.2 µM)
# In short: (§1)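 After 5 days of treatment, lung cancer cells in 1536-well plates were fixed and stained in a single step (final 0.05% Triton X-100, 1% formaldehyde, 1 ug/ml Hoechst) and their nuclei counted on 4× images. Treatment had been applied by pin tool the day after seeding as one drug alone or as a fixed anchor-drug dose with five library-drug doses (not always all listed) in √10 steps. Relative viability is the nuclei count of treated wells divided by that of vehicle wells, and values are medians of duplicate plates.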
# [2] = compound: O=C(O)C(Cc1ccccc1[N+](=O)[O-])=NNc1nc(-c2ccc(Cl)c(Cl)c2)cs1 (mixture of isomers) [4EGI-1] + Nc1ncn([C@H]2C[C@H](O)[C@@H](CO)O2)c(=O)n1 [Decitabine] (partner 2 µM)
# In short: as §1
# [3] = compound: O=C(O)C(Cc1ccccc1[N+](=O)[O-])=NNc1nc(-c2ccc(Cl)c(Cl)c2)cs1 (mixture of isomers) [4EGI-1] + C[C@@H](Oc1cc(-c2cnn(C3CCNCC3)c2)cnc1N)c1c(Cl)ccc(F)c1Cl [Crizotinib] (partner 1 µM)
# In short: as §1
# [4] = compound: CN1CCN(CC1)C2=CC(=C(C=C2)NC3=NC=C4C(=N3)N(C5=CC=CC=C5C(=O)N4C)C)OC [XMD8-85] + CC(=O)c1c(C)c2cnc(Nc3ccc(N4CCNCC4)cn3)nc2n(C2CCCC2)c1=O [Palbociclib] (partner 0.5 µM)
# In short: as §1
Cell Line,relative viability ([1]; first compound 0.08 µM),relative viability ([1]; first compound 0.253 µM),relative viability ([1]; first compound 0.8 µM),relative viability ([1]; first compound 2.53 µM),relative viability ([1]; first compound 8 µM),relative viability ([2]; first compound 0.5 µM),relative viability ([2]; first compound 1.581 µM),relative viability ([2]; first compound 5 µM),relative viability ([2]; first compound 15.81 µM),relative viability ([2]; first compound 50 µM),relative viability ([3]; first compound 0.5 µM),relative viability ([3]; first compound 1.581 µM),relative viability ([3]; first compound 5 µM),relative viability ([3]; first compound 15.81 µM),relative viability ([3]; first compound 50 µM),relative viability ([4]; first compound 0.08 µM),relative viability ([4]; first compound 0.253 µM),relative viability ([4]; first compound 0.8 µM),relative viability ([4]; first compound 2.53 µM),relative viability ([4]; first compound 8 µM)
201T,0.566,0.651,0.669,0.698,0.575,0.871,0.859,0.886,0.826,0.615,1.06,0.98,1.01,1.01,1.02,0.342,0.321,0.36,0.34,0.325
A549,,,,,,0.345,0.377,0.259,0.177,0.0347,0.742,0.683,0.787,0.669,0.0783,,,,,
A-427,,0.81,0.675,0.63,0.478,0.575,,0.592,0.513,0.336,1.02,0.728,0.791,0.822,0.424,0.521,0.544,0.571,0.52,0.463
ABC-1,0.904,0.805,0.799,0.876,0.859,1.28,,1.12,1.23,0.482,1.23,0.7,1.09,0.472,0.259,0.468,0.598,0.781,0.689,
BEN,0.831,0.661,0.691,0.653,0.463,0.758,0.635,0.78,0.578,0.522,1.07,1.1,0.885,0.821,0.796,0.466,0.449,0.475,0.446,0.463
CAL-12T,0.545,0.642,0.604,,0.466,,,,,,0.663,,0.742,0.618,0.281,0.308,0.499,,0.474,0.196
COR-L23,,,,,,0.473,0.343,0.474,0.291,0.171,0.687,0.412,0.64,0.521,0.141,0.269,0.234,0.269,0.294,0.238
COR-L 105,,,,,,0.681,0.558,0.587,0.472,0.523,0.722,0.626,0.789,0.887,0.784,0.421,0.423,0.368,0.382,0.409
Calu-6,,,,,,,,,,,0.796,0.756,0.854,0.834,0.201,,,,,
ChaGo-K-1,0.825,0.883,0.855,0.903,0.91,0.538,0.511,0.523,0.479,0.352,1.23,,1.15,0.961,0.553,0.99,0.965,0.963,0.931,0.899
EBC-1,,,,,,,,,,,0.205,0.247,0.162,0.183,0.224,,,,,
EKVX,0.685,0.742,0.67,0.729,0.646,0.386,,0.371,0.276,0.319,1.01,0.759,1.14,0.874,0.936,0.285,0.369,0.446,0.487,0.372
EMC-BAC-2,1.16,1.03,1.04,1.1,0.789,1.21,,0.972,0.904,0.436,0.776,0.594,0.706,0.627,0.306,0.494,0.495,0.504,0.473,0.458
EPLC-272H,0.209,0.16,0.362,0.229,0.273,0.45,,0.359,0.31,0.305,0.929,0.505,1.03,0.94,0.947,0.284,0.317,0.312,0.306,0.303
H3255,0.979,0.868,0.894,0.925,0.554,0.684,,0.638,,0.594,1.14,0.573,0.856,0.612,0.541,0.33,0.323,0.285,0.273,0.26
HARA,0.314,0.269,0.303,0.283,0.273,0.446,0.511,0.692,0.366,0.167,1.06,1.07,1.03,0.906,0.212,0.278,0.287,0.279,0.247,0.195
HCC-15,1.16,1.06,1.13,1.12,1.02,0.89,0.723,0.675,0.527,0.217,0.831,0.893,0.858,0.776,0.598,0.728,0.705,0.751,0.708,0.619
HCC-44,1.05,1.06,1,1.01,1.06,0.964,0.905,0.936,0.924,0.432,0.841,0.6,0.8,0.656,0.186,0.993,1.06,1.08,0.993,0.946
HCC-78,0.556,0.582,0.728,1.13,0.499,0.768,,0.729,0.621,0.725,0.365,0.258,0.371,0.286,0.373,0.544,0.459,0.564,0.503,0.435
HCC-366,0.216,0.311,0.335,0.336,0.259,0.364,0.29,0.549,0.256,0.0833,0.641,0.277,0.605,0.506,0.529,0.316,0.298,0.375,0.291,0.196
HCC-827,0.23,0.185,0.231,0.263,0.206,0.263,0.31,0.344,,0.219,0.935,0.819,0.868,,0.685,0.505,0.472,0.424,0.505,0.467
HOP-62,0.497,0.708,0.523,,0.421,0.272,0.199,0.215,0.202,0.183,0.667,,0.938,0.89,0.574,0.512,0.463,,0.378,0.246

Cell Line,relative viability ([1]; first compound 0.08 µM),relative viability ([1]; first compound 0.253 µM),relative viability ([1]; first compound 0.8 µM),relative viability ([1]; first compound 2.53 µM),relative viability ([1]; first compound 8 µM),relative viability ([2]; first compound 0.5 µM),relative viability ([2]; first compound 1.581 µM),relative viability ([2]; first compound 5 µM),relative viability ([2]; first compound 15.81 µM),relative viability ([2]; first compound 50 µM),relative viability ([3]; first compound 0.5 µM),relative viability ([3]; first compound 1.581 µM),relative viability ([3]; first compound 5 µM),relative viability ([3]; first compound 15.81 µM),relative viability ([3]; first compound 50 µM),relative viability ([4]; first compound 0.08 µM),relative viability ([4]; first compound 0.253 µM),relative viability ([4]; first compound 0.8 µM),relative viability ([4]; first compound 2.53 µM),relative viability ([4]; first compound 8 µM)
IA-LM,,,,,,,,,,,0.903,0.629,0.569,0.112,0.0835,,,,,
NCI-H520,,,,,,0.568,0.499,0.499,0.562,0.25,0.963,0.868,1.02,0.642,0.648,0.181,0.211,0.199,0.221,0.196
NCI-H522,0.697,0.851,0.798,0.859,0.69,0.666,0.63,0.693,0.679,0.63,,,,,,1.09,1.03,0.822,0.737,0.648
NCI-H596,1.18,0.944,1.06,1.1,0.966,1.01,1.11,1.16,0.942,0.569,1.15,0.846,1.13,0.878,0.557,,,,,
NCI-H661,,,,,,0.582,0.568,0.519,0.385,0.341,0.903,,0.954,0.903,0.882,0.401,,0.4,0.443,0.346
NCI-H1299,,,,,,,,,,,0.98,1,0.914,0.973,0.386,,,,,
NCI-H1395,0.382,0.393,0.395,0.418,0.35,0.746,,0.817,0.695,0.515,,,,,,0.503,0.61,0.621,0.54,0.495
NCI-H1563,,,,,,,,,,,0.905,0.742,0.857,0.81,0.627,,,,,
NCI-H1648,0.483,0.572,0.587,0.717,0.726,0.462,0.501,0.518,0.537,0.416,,,,,,0.251,0.261,0.225,0.258,0.288
NCI-H1650,,,,,,0.37,,0.421,0.256,0.293,1.03,,0.888,0.547,0.246,0.296,0.317,0.318,0.353,0.193
NCI-H1703,0.107,0.147,0.133,0.119,0.107,,,,,,0.754,0.597,0.681,0.521,0.269,,,,,
NCI-H1793,,0.408,0.483,0.344,0.413,0.557,0.333,0.442,0.427,0.238,,,,,,,0.251,0.319,0.38,0.208
NCI-H2009,,,,,,0.419,0.359,0.389,0.292,0.317,1.12,1.05,1.06,0.988,0.247,0.198,0.208,0.184,0.163,0.154
NCI-H2023,,,,,,0.242,0.173,0.221,0.128,0.0871,0.766,,0.637,0.442,0.302,0.368,0.441,0.334,0.411,0.246
NCI-H2228,,,,,,,,,,,0.416,0.508,0.653,0.502,0.195,0.651,0.572,0.828,0.844,0.35
NCI-H2342,0.509,0.478,0.552,0.511,0.488,0.757,0.704,0.742,0.737,0.731,,,,,,0.445,0.561,0.503,0.544,0.533
SK-LU-1,,,,,,0.682,0.65,0.653,0.48,0.367,0.891,1.05,0.943,0.688,0.334,0.358,0.364,0.392,0.356,0.385
SK-MES-1,,,,,,0.384,0.323,0.362,0.285,0.241,1.04,0.957,1.02,0.872,0.921,0.342,0.351,0.31,,0.248
SW 900,0.555,0.669,0.589,0.626,0.304,0.447,0.406,0.464,0.396,0.283,,,,,,0.553,0.535,0.594,0.496,0.324
SW 1573,,,,,,0.623,0.427,0.495,0.254,0.112,0.937,0.842,0.87,0.722,0.424,,0.387,0.431,0.365,0.192
UMC-11,,,,,,0.731,0.609,0.685,0.624,0.419,0.718,0.594,0.643,0.602,0.314,0.359,0.336,0.347,0.308,0.318
